One data set deals with T1, human 5HT1A receptor (Homo sapiens, UniProt P08908).
T1 construct: expressed in transfected cells; host or cells: CHO
T1 sequence (P08908 1-422): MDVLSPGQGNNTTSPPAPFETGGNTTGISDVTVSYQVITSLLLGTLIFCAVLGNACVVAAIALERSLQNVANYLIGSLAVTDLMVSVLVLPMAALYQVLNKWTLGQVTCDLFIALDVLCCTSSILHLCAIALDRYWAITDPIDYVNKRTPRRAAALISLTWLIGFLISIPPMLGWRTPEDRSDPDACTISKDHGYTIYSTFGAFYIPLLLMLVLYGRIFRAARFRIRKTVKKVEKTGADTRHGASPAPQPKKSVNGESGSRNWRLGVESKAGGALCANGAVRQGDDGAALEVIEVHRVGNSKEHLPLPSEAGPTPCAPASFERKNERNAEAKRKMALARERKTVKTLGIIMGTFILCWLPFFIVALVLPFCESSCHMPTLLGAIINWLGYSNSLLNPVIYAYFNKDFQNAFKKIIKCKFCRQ
Nature of the data set: Binding to 5HT1A: displacement of 3H-8-OH-DPAT in CHO cells overexpressing human 5HT1A receptor. In general terms: In a radioligand displacement assay an active substance lowers the binding of a labelled ligand.

The next data set deals with Ataxin-I mRNA. Nature of the data set: Knockdown of Ataxin I in Purkinje cells of the cerebellum (in situ hybridization, optical density). The data set is classed as in vivo, mouse. To be noted: C57/B16 mice, intranasal 4 mg/kg/day for four consecutive days, 24 hours after last administration; ± s.e.m. An excerpt: FIG. 5. Microphotographs of sagittal cerebellum sections labeled with a probe for Ataxin-1. A) and B) Arrows indicate the Purkinje cells layer, ML: molecular layer, GL: granular layer. A: example of animal treated with PBS, B: example of animal treated with 5-nonyloxytryptamine oxalate conjugated to a siRNA against mRNA for Ataxin-I (NP-1297). C: Quantification of optical density (ImageJ) in the Purkinje cells layer in arbitrary units (O.D. (a.u.)) normalized against PBS showing a significant decrease (48%±5 s.e.m.) in animals treated with NP-1297 (t test, *p<0.02).
5-HT1B receptors are expressed in the Purkinje cells of the cerebellum and using the agonist 5-nonyloxytryptamine oxalate for these receptors, conjugated to a siRNA against mRNA for Ataxin-I, we knockdown this protein only in Purkinje cells. Ataxin-1-siRNA sequence (Lee et al., Nat Neurosci 11, 1137-1139 (2008))
For this, five C57/B16 wild type mice were intranasally administered with the conjugated molecule at a concentration of 4 mg/kg/day for four consecutive days and five animals of the same strain were treated with PBS as a control; 24 hours after last administration animals were sacrificed and the brain was processed for in situ hybridization with colorimetric detection. A probe 45 nucleotides long complementary to mouse Ataxin-I mRNA and labeled with digoxigenin at both ends (5′ and 3′) was used. […]

A further data set deals with T2, 5HT3 (Homo sapiens, UniProt P46098).
T2 construct: expressed in transfected cells; host or cells: HEK (HEK-5HT3)
T2 sequence (P46098 24-478): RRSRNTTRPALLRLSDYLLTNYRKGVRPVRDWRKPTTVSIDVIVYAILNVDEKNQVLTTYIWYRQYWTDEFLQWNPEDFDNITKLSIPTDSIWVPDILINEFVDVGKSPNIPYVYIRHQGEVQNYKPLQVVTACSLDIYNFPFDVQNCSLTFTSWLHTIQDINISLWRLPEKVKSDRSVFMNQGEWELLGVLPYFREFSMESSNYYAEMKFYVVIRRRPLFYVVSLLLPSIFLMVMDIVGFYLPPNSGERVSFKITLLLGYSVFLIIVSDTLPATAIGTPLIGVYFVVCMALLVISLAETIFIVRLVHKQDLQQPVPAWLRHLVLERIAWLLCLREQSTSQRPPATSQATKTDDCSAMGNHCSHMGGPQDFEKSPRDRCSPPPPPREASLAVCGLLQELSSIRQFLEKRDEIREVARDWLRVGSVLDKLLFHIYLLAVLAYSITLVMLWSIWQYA
Nature of the data set: Binding to 5HT3: displacement of 3H-GR65630 in HEK-5HT3. To be noted: displacement of 3H-GR65630 (0.5 nM), HEK-5HT3, 3 ug of protein per well. The protocol: FIG. 6. Binding of 1319 to 5HT3. Displacement of 3H-GR65630 (0.5 nM). Data are presented as mean±SD, n=4 from one experiment. Kd of GR65630 was determined from a saturation assay.
Displacement of 3H-GR65630 (0.5 nM) with increasing concentrations of 1319 (from 0.1 nM to 10 uM), Lerisetron-C6-acyl and not derivatized Lerisetron (from 0.1 nM to 30 uM), in HEK-5HT3: 3 ug of protein per well is shown in Table 11.

Description for human 5HT1A receptor: 10 ug of protein per well preincubated 15 min and incubated 60 min RT.

The term IC50 denotes the concentration needed to halve the response being measured. High values mean weaker potency, low ones greater potency. As for `Nc1ccc(CCN2CCN(c3cccc(C(F)(F)F)c3)CC2)cc1` [LY-165,163, 1-[2-(4-aminophenyl)ethyl]-4-(3-trifluoromethylphenyl)-piperazine], on human 5HT1A receptor, the IC50 turned out to be 1.1 nM.
With “NP-1297: 5-nonyloxytryptamine oxalate conjugated to a siRNA against mRNA for Ataxin-I (SEQ ID NO: 9/10) (chain 1 GAUCUAACGUGGGCAAGUATT; chain 2 UACUUGCCCACGUUAGAUCTT; 5-nonyloxytryptamine conjugated, attachment position not given here)”, in the data set on Ataxin-I mRNA, the “Decrease of optical density (Ataxin-1 probe) in the Purkinje cells layer normalized against PBS” value was 48%±5.
At 5HT3, `c1ccc(Cn2c(N3CCNCC3)nc3ccccc32)cc1` [Lerisetron, 1-benzyl-2-piperazin-1-yl-1H-benzimidazole] yielded an IC50 of 7 nM.

The values above are taken from patent publication US9938525B2, “Compositions and methods for selective delivery of oligonucleotide molecules to cell types” (nLife Therapeutics, S.L., priority 2012, dated 2018).
